The record followed here is ChEMBL document CHEMBL1157539, “Thousands of chemical starting points for antimalarial lead identification” (Nature, 2010).

Where “and” joins values, the source holds several entries; their conditions need not be identical. Identical values can stand only once.

This assay concerns Plasmodium falciparum. The assay can be described thus: GSK_TCMDC: Inhibition of Plasmodium falciparum 3D7 in whole erythrocytes, using parasite LDH activity as an index of growth. Format: functional, organism-based.

Under “Plasmodium falciparum, 3D7”, `c1cc(CN2CCN(c3ccncc3)CC2)cc(-c2cccc(-c3nc4ccccc4[nH]3)c2)c1` showed an XC50 of 0.126 µM.

The molecule `CC(C)COc1ccc(Cl)cc1Cc1nc(-c2nc3ccc(N4CCN(C)CC4)nc3[nH]2)cs1` displayed an XC50 (Plasmodium falciparum, 3D7) of 0.751 µM. Still for that read-out and setting: in the case of `CC(=O)N(C)c1cccc(C(=O)Nc2cccc(-c3cccc(-c4nc5cccc(C)c5[nH]4)c3)c2)c1` it was 0.617 µM. On the same count and under the same terms, in the case of `CCCCOC(C(=O)OCC1CCCN1C)(c1ccccc1)c1ccccc1` (stereo unspecified) it was 0.786 µM; in that of `CN1CCC(Oc2cc(CN3CC[C@H](NC(=O)c4ccc(Cl)c(Cl)c4)C3)ccc2I)C1` (stereo partly specified), 0.843 µM.

Take `COc1ccc2ncc(F)c(CCN3CCC(NCc4cnc5c(c4)NC(=O)CS5)CC3)c2c1`: where the note is “Plasmodium falciparum, 3D7”, the XC50 came out at 0.575 µM.

In turn, `Cn1nc(C(F)(F)F)cc1-c1ccc(C(=O)Nc2ccc3c(c2)CNCC3(C)C)s1` had an XC50 (Plasmodium falciparum, 3D7) of 1.01 µM. On the same count and under the same terms, in the case of `CC(COc1ccc2c(c1)OC(C)(C)CC2c1ccccc1)NCC(O)c1cccc(Cl)c1` (stereo unspecified) it was 0.752 µM; in that of `CCCN(Cc1ccc(C)cc1)Cc1cc(=O)c2cc(Cl)ccc2[nH]1`, 1.05 µM. Same read-out and setting: in the case of `Cc1nc2ccc(-c3ccc(OC(F)(F)F)cc3)cc2c(O)c1C#N` it was 0.0207 µM; in that of `O=C(C=Cc1ccc(Cl)c(Cl)c1)NCCCCCN1CCC(CCCNS(=O)(=O)c2ccc(Br)cc2)CC1`, 1.13 µM; in that of `COc1ccc(CNC2CCN(C)CC2)cc1-c1ccc(S(=O)(=O)NC2CCC2)cc1`, 0.882 µM. Same read-out and setting: in the case of `CCc1ccc(-n2c(=O)c3cccnc3n2CC(=O)NC2CCCC2)cc1` it was 0.917 µM. Where the note is “Plasmodium falciparum, 3D7”, `COc1ccccc1CN1CCC(CNC(=O)c2cc(-c3ccc(N(C)C)cc3)cs2)C1` (stereo unspecified) came in with an XC50 of 1.27 µM. Where the note is “Plasmodium falciparum, 3D7”, `O=C(Nc1cccc(-c2cccc(-c3ccc(F)cc3)n2)c1)c1ccc([N+](=O)[O-])o1` came in with an XC50 of 0.361 µM.

`COc1ccc2ncc(F)c(CCN3CC(O)C(CNCc4ccc(F)cc4)C3)c2n1` (stereo unspecified) registered an XC50 (Plasmodium falciparum, 3D7) of 0.821 µM. The same measure, in the same setting: in the case of `CCc1ccc(C(=O)NC(=O)c2ccccc2O)cc1` it was 0.61 µM.

`NC1CCCN(Cc2cccc(-c3ccc(-c4nc5ccccc5[nH]4)s3)c2)C1` (stereo unspecified) yielded an XC50 (Plasmodium falciparum, 3D7) of 0.585 µM. Still for that read-out and setting: in the case of `Nc1c(Cl)cc(C(O)CNCCCCCOCCCc2ccc3ncccc3c2)cc1Cl` (stereo unspecified) it was 0.978 µM; in that of `Cc1cc(N[C@@H](Cc2ccccc2)C(=O)NC2CCCC2)nc(Nc2ccccc2)n1`, 0.828 µM; in that of `O=C(Nc1ccc(S(=O)(=O)N2CCCCC2)cc1)c1cc(-c2cc(Cl)ccc2O)n[nH]1`, 0.811 µM.

Where the note is “Plasmodium falciparum, 3D7”, `O=C(c1ccco1)N1CCN(c2ccc([N+](=O)[O-])c(NC3CC3)c2)CC1` registered an XC50 of 0.747 µM. As for `Cn1nc(C(F)(F)F)c(-c2ccc(Br)cc2)c1NC(=O)Cc1ccccc1F`, the XC50 (Plasmodium falciparum, 3D7) stood at 0.157 µM. Still for that read-out and setting: under `COc1cc(C(C)C)nc2ccc(NC(=O)c3ccc(C(=O)Nc4ccc5nc(C(C)C)cc(OC)c5c4)cc3)cc12` stands 0.579 µM. The same measure, in the same setting: under `CC(=O)N(Cc1ccc(CC(C)NCCc2cccc(Cl)c2)cc1)Cc1ccc(CC(C)NCCc2cccc(Cl)c2)cc1` (stereo unspecified) stands 0.783 µM; under `O=c1cc(NCCCNC(c2ccccc2)c2ccc(Cl)c(Cl)c2)[nH]c2ccccc12` (stereo unspecified), 1.14 µM. On to `c1ccc(Nc2nc(-c3ccccn3)cs2)nc1`, for which the XC50 (Plasmodium falciparum, 3D7) was determined as 1.15 µM. Still for that read-out and setting: in the case of `CC(C)CNCc1cccc(-c2cccc(CNc3ccc4ncccc4c3)c2)c1` it was 0.947 µM; in that of `CC(C(=O)Nc1ccc(Br)cc1Br)N1CCN(C(=O)c2ccco2)CC1` (stereo unspecified), 0.75 µM. As for `COc1ccc(C(=O)C2CC2CN(C)CCC(O)c2ccc(Cl)c(Cl)c2)cc1` (stereo unspecified), the XC50 (Plasmodium falciparum, 3D7) worked out at 0.873 µM. On the same count and under the same terms, under `CCO[C@H]1CN[C@H](C#Cc2cc3c(Nc4ccc(OCc5cccc(F)c5)c(Cl)c4)ncnc3s2)C1` stands 0.939 µM; under `COc1ccc(Nc2nccc(N3CCC(NC(=O)C(C)c4ccc(Cl)cc4)CC3)n2)cc1` (stereo unspecified), 0.934 µM. With `Cc1ccc(C(C)C)cc1CON1C(=N)N=C(N)NC1(C)C`, the XC50 (Plasmodium falciparum, 3D7) was 0.0032 µM. The same measure, in the same setting: in the case of `CN(C)C(S)=NN=Cc1cccc(O)c1O` it was 0.872 µM; in that of `O=C(NCCc1ccccc1)N(Cc1ccccc1-c1ccc(CNCCc2ccccc2)cc1)C1CCN(Cc2ccccc2)CC1`, 0.717 µM. On the same count and under the same terms, in the case of `COc1ccc(-n2nc(C(=O)NCCC3=CCCCC3)c3ccccc3c2=O)cc1` it was 0.682 µM.

`O=C(/C=C/c1c[nH]c2ccccc12)NCCCCCN1CCC(c2c[nH]c3ccccc23)CC1` yielded an XC50 (Plasmodium falciparum, 3D7) of 0.932 µM. `O=C(/C=C/c1ccc(-c2nc3cc(F)c(F)cc3[nH]2)cc1)NCc1ccc(Cl)c(Cl)c1`: where the note is “Plasmodium falciparum, 3D7”, the XC50 was found to be 0.938 µM. `CCNc1cc(C(=O)N[C@@H](Cc2ccccc2)[C@H](O)CNC(C)(C)CCCC(C)C)cc(N2CCCC2=O)c1` gave an XC50 (Plasmodium falciparum, 3D7) of 0.827 µM. On to `COCCN1CCC(N(Cc2ccc(-c3ccc(C(F)(F)F)cc3)cc2)C(=O)Cn2c(CCc3cccc(F)c3F)cc(=O)c3c2CCC3)CC1`, for which, under “Plasmodium falciparum, 3D7”, the XC50 worked out at 1.32 µM. `COc1ccc2ncc(F)c(C(O)CN3CCC(NCc4ccc5c(n4)NC(=O)CO5)CC3)c2c1` (stereo unspecified): the XC50 was 1.11 µM and 0.367 µM. Under “Plasmodium falciparum, 3D7”, `COc1cccc(CNC(=O)c2cc(CNCc3ccccc3)ccc2-c2cccc(CNCc3ccc(-c4ccccc4)cc3)c2)c1` yielded an XC50 of 0.847 µM.

Where the note is “Plasmodium falciparum, 3D7”, `Cc1ccc2c(c1)c(C1CCN(C(=O)c3ccc([N+](=O)[O-])o3)CC1)cn2C` yielded an XC50 of 0.746 µM. For `CCOc1ccc(C2CCN(CCCCNC(=O)c3ccc(NC(=O)c4ccc(Cl)cc4)cc3)CC2)c(Cl)c1`, under “Plasmodium falciparum, 3D7”, the XC50 was 0.731 µM.

With `C=C[C@H]1CN2CC[C@H]1C[C@H]2[C@H](O)c1ccnc2ccc(OC)cc12`, the XC50 (Plasmodium falciparum, 3D7) amounted to 0.426 µM. `CCNc1cc(C(=O)N[C@@H](Cc2ccccc2)[C@H](O)CN[C@@H]2CCc3ccccc32)cc(N2CCCCS2(=O)=O)c1`: the XC50 (Plasmodium falciparum, 3D7) turned out to be 0.555 µM. With `CC(C)(CNCCOc1ccc(Cl)cc1)c1nc(-c2ccnc(N)n2)c(-c2ccc(Cl)c(O)c2)[nH]1`, the XC50 (Plasmodium falciparum, 3D7) worked out at 0.834 µM.

Where the note is “Plasmodium falciparum, 3D7”, `COc1ccc(NC(=O)[C@H](CC(C)C)Nc2cc(C)nc(Nc3ccccc3)n2)cc1` returned an XC50 of 0.866 µM. Same read-out and setting: under `O=C(CNCC1CCCCC1)Nc1cc(C(F)(F)F)ccc1Cl` stands 0.982 µM; under `N#Cc1ccc(N2CCN(Cc3cccc(-c4ccc(-c5nc6cc(C(F)(F)F)ccc6[nH]5)cc4)c3)CC2)nc1`, 0.702 µM; under `O=C(Nc1ccc(-c2nc3ccccc3[nH]2)cc1)c1ccc(-c2cccc([N+](=O)[O-])c2)o1`, 0.267 µM. The same measure, in the same setting: under `COc1ccc(C(=O)N2CCc3cc4nccc(N5CCN6CCC[C@H]6C5)c4cc32)cc1` stands 0.948 µM; under `CCOC(=O)C1=C(C)N=c2sc(=Cc3cc(Cl)ccc3O)c(=O)n2C1c1ccc2c(c1)OCO2` (stereo unspecified), 0.712 µM; under `O=C(C=Cc1cccc(F)c1)NC1CCC(CCN2CCc3ccc(-c4cnccn4)cc3CC2)CC1` (stereo unspecified), 0.454 µM.

With `CCCNCc1ccc(-c2ccc(CN(CCOC)C(=O)c3ccccc3)cc2)nc1`, for the setting “Plasmodium falciparum, 3D7”, the XC50 is 0.876 µM. Same read-out and setting: under `O=C(Nc1cccc(CN2CCCN(Cc3ccc(O)cc3)CC2)c1)c1ccc2ccccc2n1` stands 0.938 µM. The same measure, in the same setting: in the case of `COc1ccc2c(O)c(C3CCC(c4ccc(Cl)cc4)CC3)c(C)nc2c1` (stereo unspecified) it was 0.647 µM; in that of `CN(C)CCCNCc1ccc(-c2ccc(C(F)(F)F)cc2)cc1`, 0.873 µM; in that of `Cc1cc(N2CCCC2)nc(Nc2ccc(NC(=O)c3cccc(F)c3)cc2)n1`, 0.182 µM. `N=C(NCCCc1ccccc1)c1cccc(C(=N)NCCCc2ccccc2)n1` had an XC50 (Plasmodium falciparum, 3D7) of 1.38 µM. As to `CCOC(=O)/C(=N\OC(C)(C)C(=O)NCc1ccc(O)c(O)c1)c1csc(NC(c2ccccc2)(c2ccccc2)c2ccccc2)n1`, the XC50 (Plasmodium falciparum, 3D7) stood at 0.17 µM.
